In US20260022100A1, “NAV1.8 INHIBITOR” (Wuhan Humanwell Innovative Drug Research and Development …, priority 2022, published 2026):
pIC50: −log10 of the molar value.

Legend:
Nav1.8 ion channel = Nav1.8 ion channel (Homo sapiens (Human), UniProt Q9Y5Y9); assay: Inhibitory activity on Nav1.8 ion channel, whole-cell patch-clamp on HEK293/Nav1.8; format: cell-based; details: HEK293/Nav1.8, whole-cell patch clamp, holding -80 mV, 1 μM TTX
Experimental: Reagents were purchased from Sigma (St. Louis, MO) except NaOH and KOH for acid-base titration. The final concentrations of the test compounds were all prepared on the day of the test and then dissolved in an extracellular fluid. The extracellular fluid (mM) was NaCl, 137; KCl, 4; CaCl2), 1.8; MgCl2, 1; HEPES, 10; glucose 10; and pH 7.4 (NaOH titration). All test and control compound solutions contained 1 μM TTX. The intracellular fluid (mM) was: aspartic acid, 140; magnesium chloride, 2; ethylene glycol tetraacetic acid (EGTA), 11; and N-2-hydroxyethylpiperazine-N′-2-ethanesulfonic acid (HEPES), 10. The pH was adjusted to 7.4 with cesium hydroxide.
The test compounds were dissolved in dimethylsulfoxide (DMSO) at a concentration of 9 mM. On the day of the test, the compounds were then dissolved in the extracellular fluid and prepared into the required concentration.
The cells were transferred to a perfusion chamber and perfusion was carried out using the extracellular fluid. The intracellular fluid was thawed on the day of the experiment. The electrodes were produced by pulling with PC-10 (Narishige, Japan). Whole-cell patch-clamp recording was carried out. Noise was filtered at one fifth of the sampling frequency. The intracellular fluid with ¼ length of the electrode tube was added into the electrode, and the electrode was installed on a probe. The required Protocol was set, the interface was adjusted to Membrane test, and Stage was adjusted to Bath. A positive pressure was applied in the electrode. The tip of the electrode was contacted with the cell. The three-way valve of the air extractor was adjusted to a three-way state. A negative pressure was then applied to the electrode, so that the electrode and the cell formed a high-resistance seal. Stage was adjusted to Patch, and leak was controlled within −200 pA. A negative pressure was successively applied, so that cell membranes were broken, and a current path was formed. Perfusion was carried out by opening the suction filtration device and the extracellular fluid valve. The cell current was observed, and administration was started when the cell current was stable (at least 3 sweep current curves were overlapped). Administration was performed from low concentration to high concentration. The administration time of each concentration was not less than 2 min, and when the current was stable, the concentration was changed for administration.
For administration of the test samples, perfusion was carried out using a perfusion system utilizing the self gravity. […] During the period, the CV % of all peak current amplitudes should be less than 10% to exclude up and down fluctuations of the initial current. The average of the peak current amplitudes recorded for the last 10 times during the initial recording served as the current peak of the negative control. After the initial current was stable, the test samples were dosed starting from a low concentration until the 10 recorded peak currents were again stable or the peak currents were “constant” after and before administration after continuous administration for 5 min. We defined the following two cases as “stable” or “constant”: 1) if the absolute average of the peak current for 10 consecutive scans exceeded 200 pA and the CV value was less than 10%, 2) or the average of the peak current for 10 consecutive scans was between 200 pA and 50 pA and the CV value was less than 30%. The next detection of higher concentration was then given.
The average of the peak current of the last 10 scans of each concentration was taken as the peak current for that concentration for data analysis. If the stable state was not reached within 5 min, the peak current average of the last 10 scans at that time was used for data analysis as the peak current for that concentration. At the same time, the cells were discarded and no longer used for detection of higher concentration. At least two cells were tested per concentration of the compounds. […]

[1] = Pharmacokinetic assay in mice; format: in vivo; details: male, ICR, mouse, plasma, oral intragastric administration, 10 mg/kg
Experimental: Pharmacokinetic assay in mice was performed, wherein the mice used were 3 male ICR mice and fasted overnight. The mice were orally intragastrically dosed with the medicament (10 mg/kg). Blood was collected before administration and at 15 min, 30 min and 1 h, 2 h, 4 h, 6 h, 8 h, and 24 h after administration. Blood samples were centrifuged at 8000 rpm for 6 min at 4° C., and plasma was collected and stored at −20° C. The plasma at each time point was taken, and 3-5 times its amount of an acetonitrile solution containing an internal standard was added for mixing. The mixture was vortexed for 1 min and then centrifuged at 13000 rpm at 4° C. for 10 min. The supernatant was taken, and 3 times its amount of water was added for mixing. A proper amount of the resulting mixture was taken for LC-MS/MS analysis. The major pharmacokinetic parameters were analyzed using a non-compartmental model in the WinNonlin 7.0 software.

[2] = system: spinal nerve-ligated rats; assay: Spinal nerve ligation neuropathic pain model in rats (Von-Frey mechanical pain threshold); format: in vivo, male SD rat; details: SNL rats
Excerpt: A male SD rat weighing 180-220 g was placed on an operating table in a prone position after anesthesia. An incision was made along the spinal column near the hip bone of the animal, and the fascia and muscle were separated. The L5 transverse process was carefully snapped off with a tweezer. The L5 nerve was separated with a glass needle, and the L5 nerve was ligated with 5-0 ligature. The muscle and the skin were sutured and disinfected with iodophor. After 14 days of modeling, the animals were divided into different groups, 10 animals each group. Different compounds were separately orally administered intragastrically. Mechanical pain thresholds of the animals were detected with Von-Frey fiber filaments at different time points after administration. The specific administration dose and detection time are detailed in Table 3 below.
The mechanical pain threshold detection method: The pelma of the hind limb to be tested of the test animal was continuously stimulated using the Von-Frey fiber filament to bend the fiber filament, and the foot shrinking reaction of the animal was observed. The tested animals were stimulated one by one according to the sequence of the gram number of the fiber filaments from small to large, and each gram number of the fiber filament was continuously used for stimulation for 5 times. If less than 3 positive reactions were present, the procedure described above was repeated using a larger grade of fiber filament, and if 3 or more positive reactions were present for the first time in the test, the fiber filament was the pain threshold for that animal (3 tests per animal for the average). Fiber filament gram number: 0.6, 1.0, 1.4, 2.0, 4.0, 6.0, 8.0, 10.0, and 15.0; the cut value was 15.0 g.

O=C(Nc1cnc[n+]([O-])c1)c1cc(Cl)c(C(F)(F)F)cc1Oc1ccc(OC(F)(F)F)cc1 [Compound I-2, 5-(5-Chloro-2-(4-(trifluoromethoxy)phenoxy)-4-(trifluoromethyl)benzamido)pyrimidine-1-oxide]
pIC50 (Nav1.8 ion channel): 7.96

O=C(Nc1ccc[n+]([O-])c1)c1c(Oc2ccc(F)c3c2OC(F)(F)O3)cc(C(F)(F)F)c(Cl)c1F [Compound I-11, 3-(3-Chloro-2-fluoro-6-((2,2,7-trifluorobenzo[d][1,3]dioxol-4-yl)oxy)-4-trifluoromethyl-benzamido)pyridine 1-oxide]
pIC50 (Nav1.8 ion channel): 9.19 | AUC(0-t) [1]: 9070 ng·h/mL | Cmax [1]: 2240 ng/mL | Tmax [1]: 1 h | half-life [1]: 2.18 h | Mechanical pain threshold (Mean ± SD), base value before modeling ([2]; 100 mpk group, baseline before modeling): 13.0 ± 2.8 g | Mechanical pain threshold (Mean ± SD), 3 h after administration ([2]; 100 mpk oral intragastric, 3 h): 13.6 ± 2.0 g | Mechanical pain threshold (Mean ± SD), 6 h after administration ([2]; 100 mpk oral intragastric, 6 h): 12.1 ± 2.5 g

O=C(Nc1ccc[n+]([O-])c1)c1cc(Cl)c(C(F)(F)F)cc1Oc1ccc(SC(F)(F)F)cc1 [Compound I-15]
AUC(0-t) [1]: 539000 ng·h/mL | Cmax [1]: 30000 ng/mL | Tmax [1]: 8 h | half-life [1]: 34 h

COc1cc(OC(F)(F)F)ccc1Oc1cc(Cl)c(Cl)cc1C(=O)Nc1cnc[n+]([O-])c1 [Compound I-18, 5-(4,5-dichloro-2-(2-methoxy-4-(trifluoromethoxy)phenoxy)benzamido)pyrimidine 1-oxide]
pIC50 (Nav1.8 ion channel): 8.62 | AUC(0-t) [1]: 3340 ng·h/mL | Cmax [1]: 1390 ng/mL | Tmax [1]: 0.5 h | half-life [1]: 1.22 h

O=C(Nc1cnc[n+]([O-])c1)c1c(Oc2ccc(OC(F)(F)F)cc2)cc(Cl)c(Cl)c1F [Compound I-19, 5-(3,4-Dichloro-2-fluoro-6-(4-(trifluoromethoxy)phenoxy)benzamido)pyrimidine 1-oxide]
pIC50 (Nav1.8 ion channel): 9.01 | AUC(0-t) [1]: 19200 ng·h/mL | Cmax [1]: 8880 ng/mL | Tmax [1]: 0.5 h | half-life [1]: 2 h

O=C(Nc1cnc[n+]([O-])c1)c1c(Oc2ccc(OC(F)(F)F)cc2)ccc(C(F)(F)F)c1F [Compound I-20, 5-(2-fluoro-6-(4-(trifluoromethoxy)phenoxy)-3-(trifluoromethyl)benzamido)pyrimidine 1-oxide]
AUC(0-t) [1]: 96200 ng·h/mL | Cmax [1]: 8010 ng/mL | Tmax [1]: 4 h | half-life [1]: 2.87 h

[2H]C([2H])([2H])Oc1cc(F)ccc1Oc1cc(Cl)c(Cl)cc1C(=O)Nc1cnc[n+]([O-])c1 [Compound I-21, 5-(4,5-dichloro-2-(4-fluoro-2-(trideuteromethoxy)phenoxy)benzamido)pyrimidine 1-oxide]
AUC(0-t) [1]: 2490 ng·h/mL | Cmax [1]: 1400 ng/mL | Tmax [1]: 0.5 h | half-life [1]: 1.32 h

O=C(Nc1ccc[n+]([O-])c1)c1cc(Cl)c(Cl)cc1Oc1ccc(F)c2c1OC(F)(F)O2 [Compound I-22, 3-(4,5-Dichloro-2-((2,2,7-trifluorobenzo[d][1,3]dioxol-4-yl)oxy)benzamido)-pyridine 1-oxide]
pIC50 (Nav1.8 ion channel): 8.09 | AUC(0-t) [1]: 12700 ng·h/mL | Cmax [1]: 3090 ng/mL | Tmax [1]: 1 h | half-life [1]: 2.88 h

O=C(Nc1ccc[n+]([O-])c1)c1cc(Cl)c(C(F)(F)F)cc1Oc1ccc(F)c2c1OC(F)(F)O2 [Compound I-23, 3-(5-chloro-2-((2,2,7-trifluorobenzo[d][1,3]dioxol-4-yl)oxy)-4-(trifluoromethyl)benzamido)pyridine 1-oxide]
pIC50 (Nav1.8 ion channel): 8.54 | AUC(0-t) [1]: 37900 ng·h/mL | Cmax [1]: 3450 ng/mL | Tmax [1]: 1 h | half-life [1]: 2.53 h

[2H]C([2H])([2H])Oc1cc(OC(F)(F)F)ccc1Oc1cc(Cl)c(Cl)cc1C(=O)Nc1cnc[n+]([O-])c1 [Compound I-24, 5-(4,5-dichloro-2-(2-(methoxy-d3)-4-(trifluoromethoxy)phenoxy)benzamido)pyrimidine 1-oxide]
pIC50 (Nav1.8 ion channel): 8.66 | AUC(0-t) [1]: 4560 ng·h/mL | Cmax [1]: 1870 ng/mL | Tmax [1]: 0.5 h | half-life [1]: 1.78 h

O=C(Nc1cnc[n+]([O-])c1)c1c(Oc2ccc(OC(F)F)cc2)cc(C(F)(F)F)c(Cl)c1F [Compound I-25, 5-(3-Chloro-6-(4-(difluoromethoxy)phenoxy)-2-fluoro-4-(trifluoromethyl)benzamido)pyrimidine 1-oxide]
pIC50 (Nav1.8 ion channel): 8.54

[2H]C([2H])([2H])Oc1cc(F)c(F)cc1Oc1cc(C(F)(F)F)c(Cl)c(F)c1C(=O)Nc1cnc[n+]([O-])c1 [Compound I-28, 5-(3-chloro-6-(4,5-difluoro-2-(methoxy-d3)phenoxy)-2-fluoro-4-(trifluoromethyl)benzamido)pyrimidine 1-oxide]
pIC50 (Nav1.8 ion channel): 8.89

Cc1cc(F)ccc1Oc1cc(C(F)(F)F)c(Cl)cc1C(=O)Nc1cnc[n+]([O-])c1 [Compound I-31, 5-(5-chloro-2-(4-fluoro-2-methylphenoxy)-4-(trifluoromethyl)benzamido)pyrimidine 1-oxide]
pIC50 (Nav1.8 ion channel): 8.01

O=C(Nc1ccc[n+]([O-])c1)c1c(Oc2ccc(F)c3c2OC(F)(F)O3)cc(Cl)c(Cl)c1F [Compound I-32, 3-(3,4-Dichloro-2-fluoro-6-((2,2,7-trifluorobenzo[d][1,3]dioxol-4-yl)oxy)benzamido)pyridine-1-oxide]
pIC50 (Nav1.8 ion channel): 9.15

Cc1cc(F)ccc1Oc1cc(C(F)(F)F)c(Cl)c(F)c1C(=O)Nc1cnc[n+]([O-])c1 [Compound I-34, 5-(3-chloro-2-fluoro-6-(4-fluoro-2-methylphenoxy)-4-(trifluoromethyl)benzamido)pyrimidine 1-oxide]
pIC50 (Nav1.8 ion channel): 8.85
